Assay results published in patent US5574033A, “Heterocyclic compound and cardiotonic agent containing the same as effective component” (Zenyaku Kogyo Kabushiki Kaisha, priority 1991, dated 1996).
Counter-ions that a name gives are not always drawn.

Assays:
[1] = system: papillary muscles of a right ventricle; test: Pharmacological Test 1: contraction of isolated right ventricular papillary muscles upon electric stimulation (inotropic effect); parameters: species or system male Hartley guinea pig; details: 3×10^-5 M; percentage of increment of contractile force, isoprotelenol (1×10^-8 M) = 100%; 1 Hz stimulation, 30° C.
Description: (§1) Nos. of the compounds in the pharmacological tests 1 and 2 correspond to those in Examples referred to hereinafter.
(§2) A heart was removed from a male Hartley guinea pig (having a body weight of about 400 g or so) and a right atrium and papillary muscles of a right ventricle were separated from the removed heart. These preparations were suspended in 15 ml of Magnus' bath under load of 0.5 g (papillary muscles) or 1.0 g (right atria). Contraction of papillary muscles upon electric stimulation (1 Hz, 5 msec, 1.5×threshold voltage) and spontaneous contraction of the right atria were recorded through a transducer (manufactured by Orientec, T7-8-240) by a polygraph system (manufactured by NIHONKOHDEN, RMP-6008 and WT-685G).
(§3) Krebs-Henseleit solution was used as nutritive liquid bubbled with mixed gases of 95% O2 with 5% CO2 at 30° C. The value of inotropic effect is a percentage of increment of contractile force by samples when that by isoprotelenol (1×10^-8 M) is considered to be 100%. The value of chronotropic effect is a percentage of atrial rate after the injection of samples when the atrial rate before the injection is considered to be 100%.

right atria = test: Pharmacological Test 1: spontaneous contraction of isolated right atria (chronotropic effect); parameters: species or system male Hartley guinea pig; details: Cavia porcellus; 3×10^-5 M; percentage of atrial rate after injection, rate before injection = 100%; 30° C.
Description: as §1, §2, §3

[2] = Pharmacological Test 2: acute toxicity, tail vein administration, up-and-down method; details: mouse, in vivo, iv, tail vein of ddY mice, in physiological saline solution
Description: as §1
The acute toxicity was determined by administrating the sample compound, which was dissolved by physiological saline solution, in the tail vein of ddY mice (5-weeks-old, having a body weight of 25 to 28 g) and LD50 was obtained by the up-and-down method.

Row | SMILES | Inotropic Effect [1] | activity at 30 µM (right atria) | LD50 [2]
1 | O=C1CCC(C2=CCN(CC(O)c3ccc(F)cc3)CC2)=NN1 (stereo not drawn) [Compound 51, 6-[1-[2-(4-Fluorophenyl)-2-hydroxyethyl]-1,2,5,6-tetrahydropyrid-4-yl]-4,5-dihydropyridazin-3 (2H)-one] | 36.8% | 91.4% | –
2 | O=C1CCC(C2=CCN(CC(O)c3ccc([N+](=O)[O-])cc3)CC2)=NN1 (stereo not drawn) [Compound 53, 4,5-Dihydro-6-[1-[2-hydroxy-2-(4-nitrophenyl)ethyl]-1,2,5,6-tetrahydropyrid-4-yl]pyridazin-3 (2H)-one] | 102.9% | 87.8% | –
3 | O=C1CCC(C2=CCN(CC(O)c3ccccc3C(F)(F)F)CC2)=NN1 (stereo not drawn) [Compound 54, 4,5-Dihydro-6-[1-[2-hydroxy-2-[2-(trifluoromethyl)phenyl]ethyl]-1,2,5,6-tetrahydropyrid-4-yl]pyridazin-3 (2H) -one] | 25.2% | 97.3% | –
4 | O=C1CNC(C2=CCN(CC(O)c3ccc(Cl)cc3)CC2)=NN1 (stereo not drawn) [Compound 57, 3-[1-[2-(4-Chlorophenyl)-2-hydroxyethyl]-1,2,5,6-tetrahydropyrid-4-yl]-4,5-dihydro-1,2,4-triazin-6 (1H)-one] | 46.8% | 94.9% | –
5 | O=C1CNC(C2=CCN(CC(O)c3ccc([N+](=O)[O-])cc3)CC2)=NN1 (stereo not drawn) [Compound 60, 4,5-Dihydro-3-[1-[2-hydroxy-2-(4-nitrophenyl)ethyl]-1,2,5,6-tetrahydropyrid-4-yl]-1,2,4-triazin-6(1H)-one] | 43.8% | 92.6% | –
6 | N#Cc1ccc(C(O)CN2CC=C(C3=NNC(=O)CN3)CC2)cc1 (stereo not drawn) [Compound 64, 3-[1-[2-(4-Cyanophenyl)-2-hydroxyethyl]-1,2,5,6-tetrahydropyrid-4-yl]-4,5-dihydro-1,2,4-triazin-6(1H)-one] | 23.8% | 93% | –
7 | O=C1NN=C(C2=CCN(CC(O)c3ccc4ccccc4c3)CC2)CS1 (stereo not drawn) [Compound 69, 5-[1-[2-Hydroxy-2-(2-naphthyl)ethyl]-1,2,5,6-tetrahydropyrid-4-yl]-3H, 6H-1,3,4-thiadiazin-2-one] | 28.6% | 79.7% | –
8 | COc1ccc(C(CN2CC=C(C3=NNC(=O)CS3)CC2)OC)cc1 (stereo not drawn) [Compound 70, 2-[1-[2-Methoxy-2-(4-methoxyphenyl)ethyl]-1,2,5,6-tetrahydropyrid-4-y1]-4H,6H-1,3,4-thiadiazin-5-one] | 56.0% | 99.2% | –
9 | COc1ccc(C(CN2CC=C(C3=NNC(=O)CS3)CC2)OC(C)C)cc1 (stereo not drawn) [Compound 71, 2-[1-[2-Isopropoxy-2-(4-methoxyphenyl)ethyl]-1,2,5,6-tetrahydropyrid-4-yl]-4H,6H-1,3,4-thiadiazin-5-one] | 25.3% | 98.7% | –
10 | O=C1CSC(c2ccncc2)=NN1 [a, 2-(4-Pyridyl)-4H,6H-1,3,4-thiadiazin-5-one, reference compound] | 22.2% | 159% | –
11 | O=C1NN=C(c2ccncc2)CS1 [b, 5-(4-Pyridyl)-3H,6H-1,3,4-thiadiazin-2-one, reference compound] | 36.2% | 117% | –
12 | O=C1CCC(c2ccncc2)=NN1 [c, 4,5-Dihydro-6-(4-pyridyl)-pyridazin-3(2H)-one, reference compound] | 7.3% | 110% | –
13 | O=C1CNC(c2ccncc2)=NN1 [d, 4,5-Dihydro-3-(4-pyridyl)-1,2,4-triazin-6(1H)-one, reference compound] | 4.6% | 112% | –
14 | O=C1CSC(C2=CCN(CC(O)c3ccc(Cl)cc3)CC2)=NN1 (stereo not drawn) [hydrochloride of compound 13, Hydrochloride of 2-[1-[2-(4-chlorophenyl)-2-hydroxyethyl]-1,2,5,6-tetrahydropyrid-4-yl]-4H,6H-1,3,4-thiadiazin-5-one] | – | – | 101 mg/kg
15 | Cc1cccc(C(O)CN2CC=C(C3=NNC(=O)CS3)CC2)c1 (stereo not drawn) [hydrochloride of compound 20, Hydrochloride of 2-[1-[2-hydroxy-2-(3-methylphenyl)ethyl]-1,2,5,6-tetrahydropyrid-4-yl]-4H,6H-1,3,4-thiadiazin-5-one] | – | – | 173 mg/kg
16 | Cc1ccc(C(O)CN2CC=C(C3=NNC(=O)CS3)CC2)cc1 (stereo not drawn) [hydrochloride of compound 21, Hydrochloride of 2-[1-[2-hydroxy-2-(4-methylphenyl)ethyl]-1,2,5,6-tetrahydropyrid-4-yl]-4H,6H-1,3,4-thiadiazin-5-one] | – | – | 226 mg/kg
17 | Cc1ccc(C(O)CN2CC=C(C3=NNC(=O)CS3)CC2)c(C)c1 (stereo not drawn) [hydrochloride of compound 25, Hydrochloride of 2-[1-[2-hydroxy-2-(2,4-dimethylphenyl)ethyl]-1,2,5,6-tetrahydropyrid-4-yl]-4H,6H-1,3,4-thiadiazin-5-one] | – | – | 135 mg/kg
18 | O=C1CSC(C2=CCN(CC(O)c3cccc([N+](=O)[O-])c3)CC2)=NN1 (stereo not drawn) [hydrochloride of compound 30, Hydrochloride of 2-[1-[2-hydroxy-2-(3-nitrophenyl)ethyl]-1,2,5,6-tetrahydropyrid-4-yl]-4H,6H-1,3,4-thiadiazin-5-one] | – | – | 160 mg/kg
19 | O=C1CSC(C2=CCN(CC(O)c3ccc(F)cc3)CC2)=NN1 (stereo not drawn) [hydrochloride of compound 35, Hydrochloride of 2-[1-[2-(4-fluorophenyl)-2-hydroxyethyl]-1,2,5,6-tetrahydropyrid-4-yl]-4H,6H-1,3,4-thiadiazin-5-one] | – | – | 226 mg/kg
20 | O=C1CNC(C2=CCN(CC(O)c3ccc([N+](=O)[O-])cc3)CC2)=NN1 (stereo not drawn) [hydrochloride of compound 60, Hydrochloride of 4,5-dihydro-3-[1-[2-hydroxy-2-(4-nitrophenyl)ethyl]-1,2,5,6-tetrahydropyrid-4-yl]-1,2,4-triazin-6(1H)-one] | – | – | 226 mg/kg
